Publication PMC2009770, “Thiophene analogues of the carcinogens benzidine and 4-aminobiphenyl: evaluation in vitro” (British Journal of Cancer, 1978)

Key:
[1] = set-up: method as in Laham & Sinclair, 1969; settings: rats; ref Laham & Sinclair, 1969; cited from earlier work
[2] = ref Ashby & Cook, 1974; cited from earlier work
BHK 21/C13 cells [3] = assay: cell-transformation assay of Styles; settings: presence of S-9 mix, 2 separate occasions (Fig. 2)
[4] = system: Salmonella strains TA 1535, TA 1538, TA 98 and TA 100; assay: Salmonella reverse-mutation assay of Ames; settings: for response in the Ames assay (Fig. 1): strain TA 1538, presence of Aroclor 1254-induced rat liver S-9 mix
[5] = chemical stability to heat, light and air (monitored by TLC and m.p.); type: physicochemical; settings: for stability to heat and light: monitored by TLC and m.p.; for behaviour of the solid in air and light: noted at preparation
BHK 21/C13 cells [6] = assay: parallel cell-toxicity assay (% survivors) of the transformation assay; type: cell-based

SMILES: Nc1ccc(-c2ccc([N+](=O)[O-])cc2)cc1 [4-nitro-4'-aminobiphenyl]
- bladder cancer induction [1]: induces bladder cancer

SMILES: Nc1ccc2c(c1)sc1ccccc12 [VII, 3-amino-dibenzothiophene]
- carcinogenicity [2]: carcinogenicity

SMILES: Nc1ccc(-c2ccc(N)cc2)cc1 [XI, benzidine]
- response in the cell-transformation assay (BHK 21/C13 cells [3]): positive
- bladder cancer induction [1]: induces bladder cancer
- response in the Ames assay ([4]; 4 Salmonella strains, 3 separate occasions, presence and absence of Aroclor 1254-induced rat liver S-9 mix): positive on each occasion
- response in the Ames assay (Fig. 1) [4]: positive response

SMILES: CC(=O)Nc1ccc(-c2ccc(N)s2)cc1.Cl [XIII, 5-p-acetamidophenyl-2-thiophenamine hydrochloride]
- stability to heat and light [5]: unstable to heat and light
- behaviour of the solid in air and light [5]: sensitive to light and air

SMILES: Cl.Nc1ccc(-c2ccccc2)s1 [XIV, 5-phenyl-2-thiophenamine hydrochloride]
- stability to heat and light [5]: unstable to heat and light
- behaviour of the solid in air and light [5]: discolours quickly in air and light

SMILES: CC(=O)Nc1ccc(-c2ccc(NC(C)=O)s2)cc1 [XV, N-(5-p-acetamido-phenylthiophen-2-yl)acetamide]
- cytotoxicity (toxicity curve, % survivors) (BHK 21/C13 cells [6]): toxicity curve similar to that of benzidine
- response in the Ames assay (Fig. 1) [4]: positive response
- stability to heat and light [5]: stable

SMILES: CC(=O)Nc1ccc(-c2ccccc2)s1 [XVI, N-(5-phenylthiophen-2-yl)-acetamide]
- cytotoxicity (toxicity curve, % survivors) (BHK 21/C13 cells [6]): toxicity curve similar to that of benzidine
- stability to heat and light [5]: stable
